# Experimental data: patent US7579371B2, “Methods of using [3.2.0] heterocyclic compounds and analogs thereof” (Nereus Pharmaceuticals, Inc., priority 2004, dated 2009)
# Several values for one entry are separate records, joined by “and”; a condition that tells them apart may be missing. Equal entries are not always repeated. Where two headings read alike, the source gives them in different places.
# Tests used:
# [1] = test system: B16-F10; experiment: Cell growth inhibition assay (resazurin, 48 h); type: cell-based, mouse; details: B16-F10, 48 h
# Procedure: (§1) RPMI 8226 (CCL-155), HT-29 (HTB-38), and B16-F10 (CRL-6475) cells were purchased from ATCC. RPMI 8226 cells were maintained in RPMI 1640 media supplemented with 10% (v/v) FBS, 2 mM L-glutamine, 1 mM sodium pyruvate and Penicillin/Streptomycin at 100 IU/ml and 100 μg/ml, respectively. HT-29 cells were maintained in McCoys 5A supplemented with 10% (v/v) FBS, 2 mM L-glutamine, 1 mM sodium pyruvate, 1% (v/v) non-essential amino acids, 10 mM HEPES and Penicillin/Streptomycin at 100 IU/ml and 100 μg/ml, respectively. B16-F10 cells were maintained in DMEM supplemented with 10% (v/v) FBS, 2 mM L-glutamine, 10 mM HEPES and Penicillin/Streptomycin at 100 IU/ml and 100 μg/ml, respectively.
# (§2) RPMI 8226 cells were seeded at 2×10^4 cells/well in 90 μl RPMI media containing 10% (v/v) FBS or 1% (v/v) FBS into 96 well black-walled, clear-bottom tissue culture plates. […] Formulae II-16, II-17 and Formula II-18 were serially diluted in media containing 1% or 10% FBS and added in triplicate to the test wells. […] The final concentration of Formula II-18 ranged from 2 μM to 630 pM.
# [2] = test system: DU 145; experiment: Cell growth inhibition assay (resazurin, 48 h); type: cell-based, human
# [3] = test system: HT-29; experiment: Cell growth inhibition assay (resazurin, 48 h); type: cell-based, human; details: HT-29, 48 h
# Procedure: as §1, §2
# [4] = test system: NCI-H292; experiment: Cell growth inhibition assay (resazurin, 48 h); type: cell-based, human; details: NCI-H292, 48 h
# [5] = test system: HL-60/MX2; experiment: Cell growth inhibition assay (resazurin, 48 h); details: for EC50: HL-60/MX2, 48 h
# Procedure: The DNA binding agent Mitoxantrone was included as a control, as HL-60/MX2 cells are reported to be resistant to this chemotherapeutic agent (Harker W. G. et al. 1989).
# Concentrations ranging from 6.32 μM to 2 nM were tested for II-2 and II-4.
# HL-60/MX2 is a multidrug resistant tumor cell line derived from the human promyelocytic leukemia cell line, HL-60 and expresses reduced topoisomerase II activity. […] Mitoxantrone, the topoisomerase II targeting agent was included as a control.
# [6] = molecular target: T1, human erythrocyte 20S proteasomes, chymotrypsin-like activity (Homo sapiens, UniProt P28074); experiment: Chymotrypsin-like activity of human erythrocyte 20S proteasomes; type: biochemical
# T1 construct: Human erythrocyte 20S proteasomes were obtained from BIOMOL (Cat. # SE-221); purchased BIOMOL SE-221; host or cells: human erythrocytes
# [7] = molecular target: T2, human erythrocyte proteasomes, Trypsin-like activity (Homo sapiens, UniProt Q99436); experiment: Trypsin-like activity of human erythrocyte proteasomes; type: biochemical
# T2 construct: from tissue; host or cells: human erythrocytes
# [8] = molecular target: Cathepsin B (Homo sapiens, UniProt P07858); experiment: Inhibition of Cathepsin B; type: biochemical
# [9] = Maximum tolerated dose determination in female BALB/c mice; type: in vivo, mouse
# Text: In vivo studies were designed to determine the MTD of Salinosporamide A when administered intravenously to female BALB/c mice.
# Animals were observed daily for clinical signs and were weighed individually twice weekly until the end of the experiment (maximum of 14 days after the last day of dosing).
# [10] = LogD7.4 determination; details: pH 7.4
# Text: These studies consisted of solubility assessment, LogD^7.4 determination and a preliminary screen to detect cytochrome P450 enzyme inhibition.
# [11] = test system: p21 and p27; experiment: Western blot of cell cycle regulatory proteins p21 and p27; type: cell-based, human; details: various concentrations, preliminary
# Text: The ubiquitin-proteasome pathway is an essential proteolytic system involved in cell cycle control by regulating the degradation of cyclins and cyclin-dependent kinase (Cdk) inhibitors such as p21 and p27. Pagano, et al., Science 269:682 (1995), Kisselev, et al., Chem Biol 8:739 (2001), King, et al., Science 274:1652 (1996). Furthermore, p21 and p27 protein levels are increased in the presence of proteasome inhibitors. Fukuchi, et al., Biochim Biophys Acta 1451:206 (1999), Takeuchi, et al, Jpn J Cancer Res 93:774 (2002).
# The Western blots presented in FIG. 33 were reprobed using antibodies against p21 and p27 to determine the endogenous level of each protein and anti-Tubulin antibody was used to confirm equal loading of protein.
# [12] = test system: PC-3 cells; experiment: PARP and Pro-Caspase 3 cleavage in PC-3 cells (western blot); type: cell-based, human; details: 100 nM; 0, 8 or 24 hours
# Procedure: Total protein lysates were made and 20 μg of the lysates were then resolved under reducing/denaturing conditions and blotted onto nitrocellulose. The blots were then probed with anti-PARP or anti-caspase 3 antibodies followed by stripping and reprobing with an anti-actin antibody.
# [13] = test system: MM.1R and Doxorubicin-resistant Dox-40 cell lines
# [14] = test system: RAW264.7 cells; experiment: cells; details: Mus musculus
# [15] = test system: 60 human tumor cell lines; experiment: NCI screening panel of 60 human tumor cell lines (sulforhodamine B)
smiles,measurement,setting,value
"C[C@@]12OC(=O)[C@]1([C@@H](O)[C@@H]1C=CCCC1)NC(=O)[C@@H]2CCCl [Formula II-16, Salinosporamide A]",EC50,[1],47 ± 20 nM
same,EC50,[1]; Mus musculus,33 nM
same,% cytotoxicity,[2]; DU 145,75 ± 4%
same,EC50,"[2]; Homo sapiens, DU 145, 48 h",37 ± 10 nM
same,EC50,[3],40 ± 26 nM
same,EC50,[3]; Homo sapiens,47 nM
same,EC50,[4]; Homo sapiens,97 nM
same,EC50,[4],66 ± 29 nM
same,% cytotoxicity,[5]; HL-60/MX2,84% and 89%
same,EC50,[5],25 nM
same,EC50,"[5]; Homo sapiens, HL60/MX2, 48 h",28 nM
same,EC50,[6],~3 nM and ~4 nM
same,EC50,[7],~9 nM
same,EC50,[8],> 200000 nM
same,"well tolerated dose, daily for five consecutive days","[9]; i.v. qdx5, female BALB/c mice",up to 0.1 mg/kg
same,tolerated single intravenous dose,"[9]; qdx1, female BALB/c mice",up to 0.25 mg/kg
same,LogD7.4,[10],2.4
same,p21 and p27 protein levels,[11],elevated
same,cleavage of PARP,[12],cleavage of PARP is noticeable at 24 hours
same,activity against drug resistant multiple myeloma,[13],active against MM.1R and Doxorubicin-resistant Dox-40 cell lines
same,EC50,"[14]; RAW264.7, read-out: EC50, inhibition of LeTx-mediated cytotoxicity",< 4 nM
same,viability at […],"[14]; RAW264.7, read-out: cell-viability, compound + LeTx",82%
same,GI50,"[15]; 60 cell, 48 h, read-out: mean GI50",< 10 nM
same,CC50,"[15]; SK-MEL-28, read-out: LC50",< 10 nM
same,CC50,[15]; read-out: LC50,< 10 nM
